Source: EP0463514B1, “3.3'-Dithiobis (propionic acids) and esters thereof” (priority 1990, dated 1992)
Marks after values point to notes of the source that are not given here.

Tested on: delayed type hypersensitivity (DTH) reaction
Assay: Delayed type hypersensitivity (DTH) reaction in the mouse, OXA sensitization and ear challenge, ear thickness
Format: in vivo, Balb/c mice
Conditions: oral feeding from sensitization to Day 6, 100 = doubled ear thickness; for % Increase, 48h: increase in ear thickness 48 hours after OXA challenge
Source text: The property of the compounds of the invention to stimulate immune responses are illustrated by their efficacy in a model in the mouse of the delayed type hypersensitivity (DTH) reaction.
Both male and female Balb/c mice obtained from Bomhotsgaard (Denmark) and Charlie Rivers (England), were used at the weight of 18-20 gram. 4-ethoxymethylene-2-phenyloxazolone (OXA) was purchased from BDH (England) and served as an antigen in this test.
The mice were sensitized, Day 0, by epicutaneous application of 150 ul absolute ethanol-acetone (3:1) solution containing 3% OXA on the shaved thorax and abdomen. Treatment with the compound under examination, DiNAC (as a positive control) or vehicle (phosphate buffer, pH 7.0) was initiated by oral feeding immediately after sensitization and contiuned once to Day 6. […] (Day 6) after the sensitization both ears of all mice were challenged on both sides by topical application of 20 ul 1% OXA dissolved in olive oil. Ear thickness was measured prior to and 24 or 48 hours after challenge using an Oditest spring calliper. Challenges and measurements were performed under light pentobarbital anaesthesia. The intensity of the DTH reactions was expressed according to the formula: Tt24/48-Tt0 um units, where t0 and t24/48 represent the ear thickness before and 24 or 48 hours after challenge, respectively, in individual test (T). The results were expressed as the mean+/-S.E.M. The level of significance between means of the groups was obtained by Student's two-tailed t-test. […] A figure of 100 thus indicates a doubled ear thickness.

Compound | % Increase, 24h (increase in ear thickness 24 hours after OXA challenge, 0.03 »mol/kg) | % Increase, 48h (0.03 »mol/kg) | % Increase, 48h
CC(C)(C)C(=O)N[C@@H](CSSC[C@H](NC(=O)C(C)(C)C)C(=O)O)C(=O)O [Example 21, (R,R)-N,N'-di(2,2-dimethylpropionyl)-3,3'-dithiobis(2-aminopropionic acid)] | 14* % | 26* % | 27* %
CC(=O)N[C@@H](CSSC[C@H](NC(=O)C(C)(C)C)C(=O)O)C(=O)O [Example 20, (R,R)-N-Acetyl-N'-(2,2-dimethylpropionyl)-3,3'-dithiobis(2-aminopropionic acid)] |  | 14% | 17* %
CC(C)C(=O)N[C@@H](CSSC[C@H](NC(=O)C(C)C)C(=O)O)C(=O)O [Example 16, (R,R)-N,N'-di(2-methylpropionyl)-3,3'-dithiobis(2-aminopropionic acid)] |  | 27** % | 62*** %
CCCCCC(=O)N[C@@H](CSSC[C@H](NC(=O)CCCCC)C(=O)OC)C(=O)OC [Example 9, (R,R)-N,N'-dihexanoyl-3,3'-dithiobis(2-aminopropionic acid)dimethylester] |  | 51*** % | 45*** %
CCCCCCCC(=O)N[C@@H](CSSC[C@H](NC(=O)CCCCCCC)C(=O)OCC)C(=O)OCC [Example 11, (R,R)-N,N'-di(1-oxo-octyl)-3,3'-dithiobis(2-aminopropionic acid)diethylester] |  | 0% | 0%
COC(=O)[C@H](CSSC[C@H](NC(=O)C(C)C)C(=O)OC)NC(=O)C(C)C [Example 14, (R,R)-N,N'-di(2-methylpropionyl)-3,3'-dithiobis(2-aminopropionic acid)dimethylester] |  | 17* % | 27*** %
CCCCCCCC(=O)N[C@@H](CSSC[C@H](NC(=O)CCCCCCC)C(=O)OC)C(=O)OC [Example 10, (R,R)-N,N'-di(1-oxo-octyl)-3,3'-dithiobis-(2-aminopropionic acid)dimethylester] |  | 28** % | 20* %
